Source: patent publication US8530461B2 (Boehringer Ingelheim International GmbH, priority 2011, dated 2013)

Target: T1, human ACC2 (Homo sapiens, UniProt O00763)
T1 construct: made in house; host or cells: insect cells (baculoviral expression system)
Assay: ACC2 assay, spectrophotometric 384 well assay (NADH-linked, coupled lactate dehydrogenase/pyruvate kinase)
Assay type: biochemical
Conditions: ACC2 assay; human ACC2 construct lacking 128 N-terminal amino acids; 25° C., 340 nm, 15 minutes; read-out: IC50
Description: Spectrophotometric 384 Well Assay
Malonyl CoA formation by acetyl CoA carboxylases is stoichometrically linked to the consumption of ATP. ACC2 activity is measured in a NADH-linked kinetic method measuring ADP generated during the ACC reaction using a coupled lactate dehydrogenase/pyruvate kinase reaction.
For biological testing, a human ACC2 construct which lacks the 128 amino acids at the N-terminus for increased solubility (nt 385-6966 in Genbank entry AJ575592) is cloned. The protein is then expressed in insect cells using a baculoviral expression system. Protein purification is performed by anion exchange.
All compounds are dissolved in dimethyl sulfoxide (DMSO) to a concentration of 10 mM.
Assay reactions are then carried out in 384-well plates, with hACC2 in an appropriate dilution and at final assay concentrations (f.c.) of 100 mM Tris (pH 7.5), 10 mM trisodium citrate, 25 mM KHCO3, 10 mM MgCl2, 0.5 mg/ml BSA, 3.75 mM reduced L-glutathione, 15 U/ml lactate dehydrogenase, 0.5 mM phosphoenolpyruvate, 15 U/ml pyruvate kinase, compounds at different concentrations at final DMSO concentrations of 1%.
The enzymatic reaction is then started by addition of a mixture of NADH, acetyl Coenzyme A (both […].) and ATP (500 uM f.c.). The decrease of the optical density (slope S) is then determined at 25° C. at a wavelength of 340 nm over 15 minutes in a spectrophotometric reader.
Each assay microtiter plate contains wells with vehicle instead of compound as controls for the non-inhibited enzyme (100% CTL; ‘HIGH’) and wells without acetyl-CoA as controls for non-specific NADH degradation (0% CTL; ‘LOW’).
The slope S is used for calculation of % CTL=(S(compound)−S(‘LOW’))/(S(‘HIGH’)−S(‘LOW’))100. Compounds will give values between 100% CTL (no inhibition) and 0% CTL (complete inhibition).
For IC50 value determination, the sample slope in the presence of the test compound after subtraction of the low controls (S(compound)−S(‘LOW’)) are used.
An IC50 value is derived from the compound slopes at different dosages after subtraction of the low controls (S(compound)−S(‘LOW’)) by non-linear regression curve fitting (equation y=(A+((B−A)/(1+((C/x)^D))))).

T1 sequence (O00763 129-2458 limits assumed): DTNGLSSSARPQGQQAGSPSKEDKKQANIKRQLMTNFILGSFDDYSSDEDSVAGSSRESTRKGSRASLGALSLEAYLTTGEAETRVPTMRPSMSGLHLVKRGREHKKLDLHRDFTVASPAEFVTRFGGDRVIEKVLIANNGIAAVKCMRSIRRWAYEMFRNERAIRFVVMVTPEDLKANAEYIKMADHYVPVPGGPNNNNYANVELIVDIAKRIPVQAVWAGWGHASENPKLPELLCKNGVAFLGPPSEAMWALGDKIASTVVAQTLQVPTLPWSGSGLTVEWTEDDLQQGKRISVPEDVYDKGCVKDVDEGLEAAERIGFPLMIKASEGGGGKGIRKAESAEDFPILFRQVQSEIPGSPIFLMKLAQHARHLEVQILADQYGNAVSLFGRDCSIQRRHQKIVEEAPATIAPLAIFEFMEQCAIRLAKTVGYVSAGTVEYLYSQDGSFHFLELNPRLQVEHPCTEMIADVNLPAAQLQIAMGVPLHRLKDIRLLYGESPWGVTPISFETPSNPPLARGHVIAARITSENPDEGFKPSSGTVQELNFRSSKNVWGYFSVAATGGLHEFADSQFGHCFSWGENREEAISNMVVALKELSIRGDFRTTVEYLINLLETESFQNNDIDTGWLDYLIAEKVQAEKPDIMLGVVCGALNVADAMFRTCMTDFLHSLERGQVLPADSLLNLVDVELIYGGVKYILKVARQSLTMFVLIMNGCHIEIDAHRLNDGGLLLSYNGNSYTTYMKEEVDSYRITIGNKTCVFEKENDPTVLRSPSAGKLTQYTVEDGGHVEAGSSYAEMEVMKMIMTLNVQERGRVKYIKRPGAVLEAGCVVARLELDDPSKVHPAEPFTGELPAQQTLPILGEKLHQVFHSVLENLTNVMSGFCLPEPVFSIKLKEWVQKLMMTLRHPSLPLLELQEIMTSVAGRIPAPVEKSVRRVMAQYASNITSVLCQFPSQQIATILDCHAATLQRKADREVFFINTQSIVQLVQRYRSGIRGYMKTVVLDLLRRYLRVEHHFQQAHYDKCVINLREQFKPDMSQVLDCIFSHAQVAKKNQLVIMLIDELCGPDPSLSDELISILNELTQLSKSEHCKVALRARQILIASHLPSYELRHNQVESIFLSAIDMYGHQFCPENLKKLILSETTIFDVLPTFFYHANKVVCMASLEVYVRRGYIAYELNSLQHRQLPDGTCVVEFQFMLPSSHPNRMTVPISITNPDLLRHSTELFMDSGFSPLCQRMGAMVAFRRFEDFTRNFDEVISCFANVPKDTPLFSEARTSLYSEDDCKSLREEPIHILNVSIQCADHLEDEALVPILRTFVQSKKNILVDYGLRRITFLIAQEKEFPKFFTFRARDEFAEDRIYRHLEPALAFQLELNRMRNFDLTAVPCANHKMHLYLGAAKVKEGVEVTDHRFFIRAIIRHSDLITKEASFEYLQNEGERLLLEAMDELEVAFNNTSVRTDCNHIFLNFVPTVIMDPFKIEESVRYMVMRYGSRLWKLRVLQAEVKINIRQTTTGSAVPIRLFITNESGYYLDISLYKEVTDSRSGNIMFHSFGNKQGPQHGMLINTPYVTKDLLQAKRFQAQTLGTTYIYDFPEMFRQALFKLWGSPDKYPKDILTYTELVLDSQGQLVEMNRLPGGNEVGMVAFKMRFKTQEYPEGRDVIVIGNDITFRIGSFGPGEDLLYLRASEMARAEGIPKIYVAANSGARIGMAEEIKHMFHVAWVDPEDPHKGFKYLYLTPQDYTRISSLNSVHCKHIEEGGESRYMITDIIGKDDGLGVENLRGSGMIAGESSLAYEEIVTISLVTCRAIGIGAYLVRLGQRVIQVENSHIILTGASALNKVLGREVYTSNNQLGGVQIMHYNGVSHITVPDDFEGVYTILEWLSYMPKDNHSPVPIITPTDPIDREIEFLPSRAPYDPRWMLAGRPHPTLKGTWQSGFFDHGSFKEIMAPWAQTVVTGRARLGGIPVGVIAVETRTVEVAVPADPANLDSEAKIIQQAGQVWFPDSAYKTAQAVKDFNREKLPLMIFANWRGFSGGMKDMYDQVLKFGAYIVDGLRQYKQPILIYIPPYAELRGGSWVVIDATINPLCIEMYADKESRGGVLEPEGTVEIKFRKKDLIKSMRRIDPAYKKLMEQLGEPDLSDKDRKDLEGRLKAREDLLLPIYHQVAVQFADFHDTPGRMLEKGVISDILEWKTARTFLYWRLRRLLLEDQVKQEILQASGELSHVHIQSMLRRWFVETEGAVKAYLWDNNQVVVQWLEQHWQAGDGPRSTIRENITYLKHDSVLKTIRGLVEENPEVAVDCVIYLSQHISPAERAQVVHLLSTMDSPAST

SMILES	IC50 [nM]
CCOc1ccc(OC2CN(c3ccc([C@H](C)NC(=O)Cc4cncnc4)cc3)C2)cc1 [Example 1.22]	450
CC(=O)NC(C)(C)c1ccc(N2CC(Oc3ccc(OCC4CC4)cc3)C2)cc1 [Example 15.1, N-(1-{4-[3-(4-Cyclopropylmethoxy-phenoxy)-azetidin-1-yl]-phenyl}-1-methyl-ethyl)-acetamide]	910
COCCOc1ccc(OC2CN(c3ccc([C@H](C)NC(=O)c4sc(NC(C)=O)nc4C)cc3)C2)cc1 [Example 16.1, (S)-2-Acetylamino-4-methyl-thiazole-5-carboxylic acid [1-(4-{3-[4-(2-methoxy-ethoxy)-phenoxy]-azetidin-1-yl}-phenyl)-ethyl]-amide]	130
CCOc1ccc(OC2CN(c3ccc([C@H](C)NC(=O)C4CCC(=O)N4)cc3)C2)cc1 (some centres unmarked) [Example 1.59]	2060
CCNC(=O)N[C@@H](C)c1ccc(N2CC(Oc3ccc(OCC4CC4)cc3)C2)cc1 [Example 4.16]	280
CCOc1ccc(OC2CN(c3ccc([C@H](C)NC(C)=O)cc3)C2)cc1 [Example 9.2]	90
CCOc1ccc(OC2CN(c3ccc([C@H](C)NC(=O)C4CCC4)cc3)C2)cc1 [Example 1.7]	170
CC(=O)N[C@@H](C)c1ccc(N2CC(Oc3cccc(C(C)(C)C)n3)C2)cc1 [Example 12.17]	50
CCOc1ccc(OC2CN(c3ccc(C(C)NC(C)=O)cn3)C2)cc1 (centres unmarked) [Example 8.6, N-(1-{6-[3-(4-Ethoxy-phenoxy)-azetidin-1-yl]-pyridin-3-yl}-ethyl)-acetamide]	170
CCOc1ccc(OC2CN(c3ccc([C@H](C)NC(=O)c4cncs4)cc3)C2)cc1 [Example 1.85]	230
CC(C)COc1cc(OC2CN(c3ccc(C(C)NC(=O)C4CC4)cc3)C2)ccn1 (centres unmarked) [Example 11.7]	230
CC(=O)N[C@@H](C)c1ccc(N2CC(Oc3cccc(OC4CCOC4)n3)C2)cc1 (some centres unmarked) [Example 12.8]	1750
C[C@H](NC(=O)OC(C)(C)C)c1ccc(N2CC(Oc3ccc(OCC4CC4)cc3)C2)cc1 [Example 8.3, (S)-(1-{4-[3-(4-Cyclopropylmethoxy-phenoxy)-azetidin-1-yl]-phenyl}-ethyl)-carbamic acid tert-butyl ester]	1370
CCOc1ccc(OC2CN(c3ccc([C@H](C)NC(=O)N(C)C4CC4)cc3)C2)cc1 [Example 4.14]	3450
CCOc1ccc(OC2CN(c3ccc([C@H](C)NC(=O)C4CC4)cc3)C2)c(F)c1F [Example 10.24]	2260
CC(=O)N[C@@H](C)c1ccc(N2CC(Oc3ccc4c(c3)OCO4)C2)cc1 [Example 10.13]	320
CCOc1cc(F)c(OC2CN(c3ccc([C@H](C)NC(C)=O)cc3)C2)c(F)c1 [Example 10.6]	330
CCC(C)c1ccc(OC2CN(c3ccc([C@H](C)NC(C)=O)cc3)C2)cc1 (some centres unmarked) [Example 10.10]	120
CCOc1ccc(OC2CN(c3ccc([C@H](C)NC(=O)Nc4ccncn4)cc3)C2)cc1 [Example 4.1, (S)-1-(1-{4-[3-(4-Ethoxy-phenoxy)-azetidin-1-yl]-phenyl}-ethyl)-3-pyrimidin-4-yl-urea]	3410
CCOc1ccc(OC2CN(c3ccc([C@H](C)NC(=O)Cc4c[nH]cn4)cc3)C2)cc1 [Example 1.47]	1330
CCOc1ccc(OC2CN(c3ccc([C@H](C)NC(=O)C(C)C#N)cc3)C2)cc1 (some centres unmarked) [Example 1.82]	270
CC(=O)N[C@@H](C)c1ccc(N2CC(Oc3ccnc(C)n3)C2)cc1 [Example 14.3, (S)—N-(1-{4-[3-(2-Methyl-pyrimidin-4-yloxy)-azetidin-1-yl]-phenyl}-ethyl)-acetamide]	980
CCOc1ccc(OC2CN(c3ccc([C@H](C)NC(=O)C4CC(F)C4)cc3)C2)cc1 (some centres unmarked) [Example 1.24]	220
COc1ccc(OC2CN(c3ccc([C@H](C)NC(C)=O)cc3)C2)c(F)c1F [Example 10.18]	560
COc1ccc(OC2CN(c3ccc([C@H](C)NC(C)=O)cc3)C2)cn1 [Example 10.8]	740
Cc1cc2cc(OC3CN(c4ccc([C@H](C)NC(=O)C5CC5)cc4)C3)ccc2o1 [Example 10.27]	170
CCOc1cc(F)c(OC2CN(c3ccc([C@H](C)NC(=O)C4CC4)cc3)C2)c(F)c1 [Example 10.23]	130
CCOc1ccc(OC2CN(c3ccc([C@H](C)NC(=O)C(C)(F)F)cc3)C2)cc1 [Example 1.53]	70
CC(=O)N[C@@H](C)c1ccc(N2CC(Oc3ccc(OC(C)(C)C)cc3)C2)cc1 [Example 10.5]	640
